≈ marks a conversion by molar mass, not a printed value. Read-outs that look alike come from different tables or passages of the source.
Test: Equilibrium solubility of crystal forms by UV-Vis spectrophotometry (279 nm)
Type: physicochemical
Excerpt: The specific operation was as follows: take samples of five new and original crystalline forms after reaching the dissolution equilibrium, filter them with 0.22 μm filter membrane, take appropriate amount of filtrate, according to the UV-Vis spectrophotometric method (Chinese Pharmacopoeia 2020 edition), determine the absorbance value at the wavelength of 279 nm, and substitute them into the standard curve to obtain the solubility of five new and original crystalline forms, as shown in Table 1.

[1] = pH = 7.0 aqueous solution (deionized water)

Compound | solubility (pH = 1.2 hydrochloric acid) [mg/mL] | solubility (pH = 6.8 PBS) [mg/mL] | solubility [1] [mg/mL] | solubility (pH = 7.4 PBS) [mg/mL] | solubility (PBS, pH 6.8, aqueous buffer, thermodynamic from solid, pH = 6.8 PBS, read-out: solubility) [mg/mL] | solubility (PBS, pH 7.4, aqueous buffer, thermodynamic from solid, pH = 7.4 PBS, read-out: solubility) [mg/mL] | solubility (deionized water, pH 7, water, thermodynamic from solid, pH = 7.0 aqueous solution (deionized water), read-out: solubility) [mg/mL] | solubility (hydrochloric acid solution, pH 1.2, simulated gastric fluid, thermodynamic from solid, pH = 1.2 hydrochloric acid, read-out: solubility) [mg/mL]
Cn1c(=O)cc(N2CCC[C@@H](N)C2)n(Cc2cc(F)ccc2C#N)c1=O [TRE-IV, 2-[[6-[(3R)-3-aminopiperidin-1-yl]-3-methyl-2,4-dioxopyrimidin-1-yl]methyl]-4-fluorobenzonitrile] | 73.49 (≈ 206 mM) | 35.05 (≈ 98.1 mM) | 19.56 (≈ 54.7 mM) | 35.94 (≈ 101 mM) |  |  |  | 
Cn1c(=O)cc(N2CCC[C@@H](N)C2)n(Cc2cc(F)ccc2C#N)c1=O [TRE-II, 2-[[6-[(3R)-3-aminopiperidin-1-yl]-3-methyl-2,4-dioxopyrimidin-1-yl]methyl]-4-fluorobenzonitrile] | 45.91 (≈ 128 mM) | 40.01 (≈ 112 mM) | 15.98 (≈ 44.7 mM) | 37.32 (≈ 104 mM) |  |  |  | 
Cn1c(=O)cc(N2CCC[C@@H](N)C2)n(Cc2cc(F)ccc2C#N)c1=O [TRE-I, 2-[[6-[(3R)-3-aminopiperidin-1-yl]-3-methyl-2,4-dioxopyrimidin-1-yl]methyl]-4-fluorobenzonitrile] |  |  |  |  | 34.2 (≈ 95.8 mM) | 28.6 (≈ 80 mM) | 13.2 (≈ 36.9 mM) | 54 (≈ 151 mM)
Cn1c(=O)cc(N2CCC[C@@H](N)C2)n(Cc2cc(F)ccc2C#N)c1=O [TRE-III, 2-[[6-[(3R)-3-aminopiperidin-1-yl]-3-methyl-2,4-dioxopyrimidin-1-yl]methyl]-4-fluorobenzonitrile] | 39.76 (≈ 111 mM) | 35.90 (≈ 100 mM) | 14.93 (≈ 41.8 mM) | 28.26 (≈ 79.1 mM) |  |  |  | 
Cn1c(=O)cc(N2CCC[C@@H](N)C2)n(Cc2cc(F)ccc2C#N)c1=O [original crystal form, 2-[[6-[(3R)-3-aminopiperidin-1-yl]-3-methyl-2,4-dioxopyrimidin-1-yl]methyl]-4-fluorobenzonitrile, reference compound] |  | 15.46 (≈ 43.3 mM) | 3.40 (≈ 9.51 mM) | 12.94 (≈ 36.2 mM) |  |  |  | 
Cn1c(=O)cc(N2CCC[C@@H](N)C2)n(Cc2cc(F)ccc2C#N)c1=O [TRE-V, 2-[[6-[(3R)-3-aminopiperidin-1-yl]-3-methyl-2,4-dioxopyrimidin-1-yl]methyl]-4-fluorobenzonitrile] | 76.01 (≈ 213 mM) | 36.12 (≈ 101 mM) | 12.64 (≈ 35.4 mM) | 37.51 (≈ 105 mM) |  |  |  | 

From patent publication US20250163018A1, “KEY AMINO ACID BASED ON PROTEIN-DRUG INTERACTIONS INDUCED NEW CRYSTAL FORMS OF TRELAGLIPTIN AND PREPARATION METHODS THEREOF” (GUANGDONG UNIVERSITY OF TECHNOLOGY, priority 2024, published 2025)
